Values of other authors as cited in US10301318B2, “Neuroactive compounds and methods of using the same” (THE GENERAL HOSPITAL CORPORATION, priority 2014, dated 2019).

Tested on: mice
Conditions: literature

SMILES: O=C(CCCN1CCC(O)(c2ccc(Cl)cc2)CC1)c1ccc(F)cc1 [haloperidol]
- reversal of PCP-induced hyperlocomotion: can be reversed
